17 compounds from PubChem BioAssay (NCI) can be followed below.

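Each compound was tested at five concentrations against cells in 96-well plates for 48 hours. TGI denotes the concentration required for complete inhibition of growth.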

Some test systems named below: SK-MEL-2 melanoma; HOP-62 NSCLC; HS 578T breast; NCI-H460 lung; BT-549 breast; DU-145 prostate; SK-MEL-5 melanoma; IGROV1 ovarian; NCI-H23 lung; NCI-H226 lung.
Assay in all cases: DTP human tumour cell line panel, 48 h

As for `C/C(=N\Nc1nc2ccccc2s1)c1ncccn1`, the concentration for total growth inhibition (TGI) (as a rule, the concentration giving total growth inhibition) with SK-MEL-2 melanoma is 4.46 µM; with HOP-62 NSCLC, 5.78 µM; in the test on HS 578T breast, more than 37.2 µM; with NCI-H460 lung, 15.6 µM; with BT-549 breast, 3.42 µM; with DU-145 prostate, more than 100 µM. The TGI was determined as 0.219 µM with SK-MEL-5 melanoma, 0.923 µM in the test with IGROV1 ovarian and 1.11 µM with NCI-H23 lung.
As to `CCO[C@]12C[C@H](OC)[C@@]3(O)CC(C1[C@H]3OCc1ccccc1)C13C4C2[C@H](OC)C1[C@](COC)(CN4CC)[C@H](O)C[C@@H]3OC` (stereo partly specified), the TGI with HOP-62 NSCLC, in the test on NCI-H226 lung, in the test on NCI-H460 lung, in the test with SK-MEL-5 melanoma, with IGROV1 ovarian and in the test with NCI-H23 lung was more than 100 µM throughout.
As to `CCC(NC(C)c1ccccc1)C(O)c1ccc(OCc2ccccc2)c(OCc2ccccc2)c1` (stereo unspecified), the total growth inhibition concentration (TGI) with SK-MEL-2 melanoma stood at 29.1 µM; in the test with HOP-62 NSCLC, 32.2 µM; in the test on HS 578T breast, 46.9 µM; in the test on NCI-H226 lung, 36.3 µM; in the test with NCI-H460 lung it was 32.1 µM; in the test with DU-145 prostate it was 32.1 µM. The concentration for total growth inhibition (TGI) turned out to be 14.4 µM in the test on SK-MEL-5 melanoma, 33.9 µM with IGROV1 ovarian and 31.6 µM in the test on NCI-H23 lung.
For the compound `CN(C)c1ccc(C=C2C(=O)OC(C)(C)OC2=O)cc1Br`, the concentration for total growth inhibition (TGI) in the test on SK-MEL-2 melanoma, with HOP-62 NSCLC, in the test on NCI-H226 lung, with NCI-H460 lung, with SK-MEL-5 melanoma and in the test with NCI-H23 lung was more than 100 µM throughout.
Take `CN(C)CCNC(=O)c1cccc2c(NCC(=O)O)c3ccccc3nc12`: the TGI was 37.4 µM in the test with SK-MEL-2 melanoma; 82.5 µM with HOP-62 NSCLC; 50.7 µM with HS 578T breast; 30.9 µM with NCI-H226 lung; more than 100 µM with DU-145 prostate; 67.3 µM in the test on SK-MEL-5 melanoma. The results for the TGI in the test on IGROV1 ovarian and in the test on NCI-H23 lung were more than 100 µM and 45.1 µM, respectively.
Consider `CC12NN=NC1C(=O)NC2=O` (stereo unspecified), for which the concentration for total growth inhibition (TGI) in the test with SK-MEL-2 melanoma, in the test on HOP-62 NSCLC, with NCI-H226 lung, in the test on NCI-H460 lung, in the test with SK-MEL-5 melanoma and in the test with IGROV1 ovarian was more than 100 µM in each case. Also, the total growth inhibition concentration (TGI) with NCI-H23 lung was more than 100 µM.
For `O=C(c1ccccc1)c1ccc(COc2ccc(C(c3c(O)c4ccccc4oc3=O)c3c(O)c4ccccc4oc3=O)cc2)cc1`, the total growth inhibition concentration (TGI) is 34.9 µM in the test on SK-MEL-2 melanoma; 47.4 µM in the test on HOP-62 NSCLC; more than 100 µM in the test on HS 578T breast; 31 µM in the test with NCI-H226 lung; 48.6 µM with NCI-H460 lung; more than 100 µM with DU-145 prostate. Further, the TGI with SK-MEL-5 melanoma was 37.2 µM; in the test with IGROV1 ovarian, 28.5 µM; in the test with NCI-H23 lung, 37.6 µM.
As to `CC1=NN(c2ccccc2)C(=O)/C1=C/c1ccc(O)cc1`, the TGI in the test with SK-MEL-2 melanoma, in the test with HS 578T breast, with NCI-H226 lung, in the test on NCI-H460 lung, in the test with DU-145 prostate and in the test on SK-MEL-5 melanoma was more than 100 µM in each case. The TGI in the test with IGROV1 ovarian and in the test with NCI-H23 lung was more than 100 µM each time.
With `CCOC(=O)c1c(N2CCCC2)nsc1Nc1ccccc1`, the TGI in the test with SK-MEL-2 melanoma, in the test on HS 578T breast, in the test with NCI-H226 lung, with NCI-H460 lung, in the test with DU-145 prostate and in the test on SK-MEL-5 melanoma was more than 100 µM in each case. The TGI in the test with IGROV1 ovarian and with NCI-H23 lung was more than 100 µM each time.
With `CN(C)CCCNC(=O)N/N=C/c1cccc([N+](=O)[O-])c1`, the concentration for total growth inhibition (TGI) in the test on SK-MEL-2 melanoma, in the test on NCI-H226 lung, in the test with NCI-H460 lung, with SK-MEL-5 melanoma, with IGROV1 ovarian and in the test on NCI-H23 lung was more than 100 µM throughout.
As for `Cn1c(/C=C(\O)c2ccc(Cl)cc2)nc2ccccc21`, the TGI in the test with SK-MEL-2 melanoma was more than 100 µM; with NCI-H226 lung it was more than 100 µM; in the test with NCI-H460 lung, more than 100 µM; in the test on SK-MEL-5 melanoma, 92.4 µM; in the test with IGROV1 ovarian, more than 100 µM; in the test with NCI-H23 lung, more than 100 µM.
As for `COc1cc(OC)c(/C=C2\N=C(C)N(Nc3nnc(NN4C(=O)/C(=C/c5c(OC)cc(OC)cc5OC)N=C4C)c4ccccc34)C2=O)c(OC)c1`, the TGI with HOP-62 NSCLC, with NCI-H226 lung, in the test on NCI-H460 lung, in the test with SK-MEL-5 melanoma, in the test on IGROV1 ovarian and with NCI-H23 lung was more than 100 µM in each case.
`NNC(=O)c1ccc(-n2nnc(C(=O)NN)c2C(=O)NN)cc1`: the concentration for total growth inhibition (TGI) in the test with SK-MEL-2 melanoma, in the test with HOP-62 NSCLC, with NCI-H460 lung, in the test on BT-549 breast, in the test with DU-145 prostate and in the test with SK-MEL-5 melanoma was more than 100 µM throughout. The compound also had a TGI in the test on NCI-H23 lung of more than 100 µM.
Regarding `C=Cc1c(C)c(OC)cc2c1Oc1ccc(OC)c(C)c1CC2`, the concentration for total growth inhibition (TGI) in the test on SK-MEL-2 melanoma, in the test with HOP-62 NSCLC, with HS 578T breast, with NCI-H226 lung, in the test with NCI-H460 lung and in the test with DU-145 prostate was more than 100 µM in each case. In addition, the concentration for total growth inhibition (TGI) with SK-MEL-5 melanoma, in the test on IGROV1 ovarian and in the test with NCI-H23 lung was more than 100 µM throughout.
Regarding `CCOC(=O)/C(C(=S)Nc1ccccc1)=C(/N)N1CCCC1`, the TGI in the test with SK-MEL-2 melanoma, in the test on HOP-62 NSCLC, with HS 578T breast, in the test with NCI-H226 lung, with NCI-H460 lung and in the test on DU-145 prostate was more than 100 µM in each case. In addition, the TGI with SK-MEL-5 melanoma, in the test with IGROV1 ovarian and with NCI-H23 lung was more than 100 µM in each case.
Regarding `N#CC(C#N)=Cc1ccc2c(c1)OC(Cl)O2` (stereo unspecified), the total growth inhibition concentration (TGI) was 37.6 µM with SK-MEL-2 melanoma; 38.2 µM in the test with NCI-H226 lung; 63 µM in the test on DU-145 prostate; 35.1 µM with SK-MEL-5 melanoma; more than 100 µM with NCI-H23 lung.
Regarding `CCOC(=O)c1sc2c(c1OC(=O)c1cccs1)c(=O)n(-c1ccccc1)c(=S)n2-c1ccccc1`, the concentration for total growth inhibition (TGI) in the test with HOP-62 NSCLC amounted to 50.3 µM; in the test on HS 578T breast, 83 µM; in the test on NCI-H226 lung it was 48.7 µM; in the test with NCI-H460 lung, 12.4 µM; in the test on DU-145 prostate, 94.1 µM; in the test with SK-MEL-5 melanoma it was 32 µM. For the same compound, the figures for the TGI in the test on IGROV1 ovarian and with NCI-H23 lung were 28 µM and 46.5 µM, respectively.
